Laboratory results: PubChem BioAssay AID2060892 (Molecular Pharmacology Branch, DTP, NCI, 2025)

Test system: HOP-62 complex spheroids with HUVEC/MSC, viability
Assay: Anticancer human tumor HOP-62 cell line growth inhibition [RAS];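 note: spheroids exposed to agents for seven days before readout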;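 for viability, T/C: 100% = DMSO vehicle control viability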
Settings: for IC50: curve of first compound; for viability, T/C: stronger effect = lower value
Method in brief: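 Tumour cells grown as complex spheroids with HUVEC endothelial cells and mesenchymal stem cells, treated with RAS pathway inhibitor combinations. Each agent spans half-log steps from near clinical Cmax, or 10 microM where Cmax is unknown.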

[1] = second compound 0.0316 µM, first compound 0.0316 µM
[2] = second compound 0.0316 µM, first compound 0.1 µM
[3] = second compound 0.1 µM, first compound 0.0316 µM
[4] = second compound 0.1 µM, first compound 0.1 µM
[5] = second compound 0.316 µM, first compound 0.0316 µM
[6] = second compound 0.316 µM, first compound 0.1 µM
[7] = second compound 1 µM, first compound 0.0316 µM
[8] = second compound 1 µM, first compound 0.1 µM
[9] = second compound 3.16 µM, first compound 0.0316 µM
[10] = second compound 3.16 µM, first compound 0.1 µM
[11] = second compound 10 µM, first compound 0.0316 µM
[12] = second compound 10 µM, first compound 0.1 µM

`CC(=O)OC12COC1CC(O)C1(C)C(=O)C(O)C3=C(C)C(OC(=O)C(O)C(NC(=O)OC(C)(C)C)c4ccccc4)CC(O)(C(OC(=O)c4ccccc4)C21)C3(C)C` (centres undefined) + C#Cc1c(F)ccc2cc(O)cc(-c3ncc4c(N5CC6CCC(C5)N6)nc(OCC56CCCN5CC(F)C6)nc4c3F)c12 gave an IC50 (second compound 0.0316 µM) of less than 0.0316 µM, an IC50 (second compound 0.1 µM) of less than 0.0316 µM and an IC50 (second compound 0.316 µM) of less than 0.0316 µM. The IC50 (second compound 1 µM) was less than 0.0316 µM, the IC50 (second compound 3.16 µM) was less than 0.0316 µM and the IC50 (second compound 10 µM) was less than 0.0316 µM. The viability, T/C [1] was 11.7%, the viability, T/C [2] was 13.2% and the viability, T/C (second compound 0.0316 µM, first compound 0.316 µM) was 14.1%. The viability, T/C (second compound 0.0316 µM, first compound 1 µM) was 19.5%, the viability, T/C (second compound 0.0316 µM, first compound 3.16 µM) was 19.5% and the viability, T/C (second compound 0.0316 µM, first compound 10 µM) was 26.5%. The viability, T/C [3] was 14.5%, the viability, T/C [4] was 13.9% and the viability, T/C (second compound 0.1 µM, first compound 0.316 µM) was 17.6%. For the same compound, the viability, T/C (second compound 0.1 µM, first compound 1 µM) was 17.7%, the viability, T/C (second compound 0.1 µM, first compound 3.16 µM) was 18.7% and the viability, T/C (second compound 0.1 µM, first compound 10 µM) was 27.1%. It also gave a viability, T/C [5] of 12%, a viability, T/C [6] of 12.8% and a viability, T/C (second compound 0.316 µM, first compound 0.316 µM) of 16.6%. It also gave a viability, T/C (second compound 0.316 µM, first compound 1 µM) of 13.6%, a viability, T/C (second compound 0.316 µM, first compound 3.16 µM) of 18.4% and a viability, T/C (second compound 0.316 µM, first compound 10 µM) of 23.5%. It also gave a viability, T/C [7] of 14.7%, a viability, T/C [8] of 10.3% and a viability, T/C (second compound 1 µM, first compound 0.316 µM) of 13.1%. It also gave a viability, T/C (second compound 1 µM, first compound 1 µM) of 11.6%, a viability, T/C (second compound 1 µM, first compound 3.16 µM) of 17.1% and a viability, T/C (second compound 1 µM, first compound 10 µM) of 15.2%. For the same compound, the viability, T/C [9] was 9.36%, the viability, T/C [10] was 13.4% and the viability, T/C (second compound 3.16 µM, first compound 0.316 µM) was 13.2%. The viability, T/C (second compound 3.16 µM, first compound 1 µM) was 14%, the viability, T/C (second compound 3.16 µM, first compound 3.16 µM) was 17.8% and the viability, T/C (second compound 3.16 µM, first compound 10 µM) was 17.2%. The viability, T/C [11] was 13.1%, the viability, T/C [12] was 12% and the viability, T/C (second compound 10 µM, first compound 0.316 µM) was 13.8%. It also gave a viability, T/C (second compound 10 µM, first compound 1 µM) of 13.7%, a viability, T/C (second compound 10 µM, first compound 3.16 µM) of 14.8% and a viability, T/C (second compound 10 µM, first compound 10 µM) of 21.3%.
`CC(C)n1nc(-c2ccc3oc(N)nc3c2)c2c(N)ncnc21` + C#Cc1c(F)ccc2cc(O)cc(-c3ncc4c(N5CC6CCC(C5)N6)nc(OCC56CCCN5CC(F)C6)nc4c3F)c12 showed an IC50 (second compound 0.0316 µM) of 0.0278 µM, an IC50 (second compound 0.1 µM) of 0.0281 µM and an IC50 (second compound 0.316 µM) of 0.0195 µM. For the same compound, the IC50 (second compound 1 µM) was 0.0124 µM, the IC50 (second compound 3.16 µM) was 0.00375 µM and the IC50 (second compound 10 µM) was less than 0.000316 µM. The viability, T/C (second compound 0.0316 µM, first compound 0.000316 µM) was 99.2%, the viability, T/C (second compound 0.0316 µM, first compound 0.001 µM) was 99% and the viability, T/C (second compound 0.0316 µM, first compound 0.00316 µM) was 86.8%. For the same compound, the viability, T/C (second compound 0.0316 µM, first compound 0.01 µM) was 73.7%, the viability, T/C [1] was 46.3% and the viability, T/C [2] was 28.3%. For the same compound, the viability, T/C (second compound 0.1 µM, first compound 0.000316 µM) was 110%, the viability, T/C (second compound 0.1 µM, first compound 0.001 µM) was 94.9% and the viability, T/C (second compound 0.1 µM, first compound 0.00316 µM) was 83.9%. For the same compound, the viability, T/C (second compound 0.1 µM, first compound 0.01 µM) was 69.6%, the viability, T/C [3] was 46.9% and the viability, T/C [4] was 26.7%. For the same compound, the viability, T/C (second compound 0.316 µM, first compound 0.000316 µM) was 106%, the viability, T/C (second compound 0.316 µM, first compound 0.001 µM) was 99.3% and the viability, T/C (second compound 0.316 µM, first compound 0.00316 µM) was 79.3%. It also gave a viability, T/C (second compound 0.316 µM, first compound 0.01 µM) of 63.1%, a viability, T/C [5] of 41.1% and a viability, T/C [6] of 26.5%. For the same compound, the viability, T/C (second compound 1 µM, first compound 0.000316 µM) was 106%, the viability, T/C (second compound 1 µM, first compound 0.001 µM) was 89.7% and the viability, T/C (second compound 1 µM, first compound 0.00316 µM) was 70%. The viability, T/C (second compound 1 µM, first compound 0.01 µM) was 54.6%, the viability, T/C [7] was 36.1% and the viability, T/C [8] was 26.6%. It also gave a viability, T/C (second compound 3.16 µM, first compound 0.000316 µM) of 76.9%, a viability, T/C (second compound 3.16 µM, first compound 0.001 µM) of 67.2% and a viability, T/C (second compound 3.16 µM, first compound 0.00316 µM) of 47.6%. It also gave a viability, T/C (second compound 3.16 µM, first compound 0.01 µM) of 37.5%, a viability, T/C [9] of 35.6% and a viability, T/C [10] of 14.4%. For the same compound, the viability, T/C (second compound 10 µM, first compound 0.000316 µM) was 45.7%, the viability, T/C (second compound 10 µM, first compound 0.001 µM) was 32.8% and the viability, T/C (second compound 10 µM, first compound 0.00316 µM) was 28.2%. It also gave a viability, T/C (second compound 10 µM, first compound 0.01 µM) of 21.6%, a viability, T/C [11] of 13% and a viability, T/C [12] of 11.6%.
